Consider eight compounds from ChEMBL document CHEMBL3414527, “Engineering potent and selective analogues of GpTx-1, a tarantula venom peptide antagonist of the Na(V)1.7 sodium channel” (J Med Chem, 2015).

Bridge positions count the residues as written; N and C are the ends. Peptide text beside a SMILES is read from it.

For assay [1], the target named is Sodium channel protein type 9 subunit alpha (Homo sapiens, UniProt Q15858). The assay can be described thus: Inhibition of human NaV1.7 at -140 mV holding potential by whole-cell patch clamp assay. Background: Patch clamp records ionic current or voltage across a cell membrane.
Chain of Sodium channel protein type 9 subunit alpha (Q15858 whole entry): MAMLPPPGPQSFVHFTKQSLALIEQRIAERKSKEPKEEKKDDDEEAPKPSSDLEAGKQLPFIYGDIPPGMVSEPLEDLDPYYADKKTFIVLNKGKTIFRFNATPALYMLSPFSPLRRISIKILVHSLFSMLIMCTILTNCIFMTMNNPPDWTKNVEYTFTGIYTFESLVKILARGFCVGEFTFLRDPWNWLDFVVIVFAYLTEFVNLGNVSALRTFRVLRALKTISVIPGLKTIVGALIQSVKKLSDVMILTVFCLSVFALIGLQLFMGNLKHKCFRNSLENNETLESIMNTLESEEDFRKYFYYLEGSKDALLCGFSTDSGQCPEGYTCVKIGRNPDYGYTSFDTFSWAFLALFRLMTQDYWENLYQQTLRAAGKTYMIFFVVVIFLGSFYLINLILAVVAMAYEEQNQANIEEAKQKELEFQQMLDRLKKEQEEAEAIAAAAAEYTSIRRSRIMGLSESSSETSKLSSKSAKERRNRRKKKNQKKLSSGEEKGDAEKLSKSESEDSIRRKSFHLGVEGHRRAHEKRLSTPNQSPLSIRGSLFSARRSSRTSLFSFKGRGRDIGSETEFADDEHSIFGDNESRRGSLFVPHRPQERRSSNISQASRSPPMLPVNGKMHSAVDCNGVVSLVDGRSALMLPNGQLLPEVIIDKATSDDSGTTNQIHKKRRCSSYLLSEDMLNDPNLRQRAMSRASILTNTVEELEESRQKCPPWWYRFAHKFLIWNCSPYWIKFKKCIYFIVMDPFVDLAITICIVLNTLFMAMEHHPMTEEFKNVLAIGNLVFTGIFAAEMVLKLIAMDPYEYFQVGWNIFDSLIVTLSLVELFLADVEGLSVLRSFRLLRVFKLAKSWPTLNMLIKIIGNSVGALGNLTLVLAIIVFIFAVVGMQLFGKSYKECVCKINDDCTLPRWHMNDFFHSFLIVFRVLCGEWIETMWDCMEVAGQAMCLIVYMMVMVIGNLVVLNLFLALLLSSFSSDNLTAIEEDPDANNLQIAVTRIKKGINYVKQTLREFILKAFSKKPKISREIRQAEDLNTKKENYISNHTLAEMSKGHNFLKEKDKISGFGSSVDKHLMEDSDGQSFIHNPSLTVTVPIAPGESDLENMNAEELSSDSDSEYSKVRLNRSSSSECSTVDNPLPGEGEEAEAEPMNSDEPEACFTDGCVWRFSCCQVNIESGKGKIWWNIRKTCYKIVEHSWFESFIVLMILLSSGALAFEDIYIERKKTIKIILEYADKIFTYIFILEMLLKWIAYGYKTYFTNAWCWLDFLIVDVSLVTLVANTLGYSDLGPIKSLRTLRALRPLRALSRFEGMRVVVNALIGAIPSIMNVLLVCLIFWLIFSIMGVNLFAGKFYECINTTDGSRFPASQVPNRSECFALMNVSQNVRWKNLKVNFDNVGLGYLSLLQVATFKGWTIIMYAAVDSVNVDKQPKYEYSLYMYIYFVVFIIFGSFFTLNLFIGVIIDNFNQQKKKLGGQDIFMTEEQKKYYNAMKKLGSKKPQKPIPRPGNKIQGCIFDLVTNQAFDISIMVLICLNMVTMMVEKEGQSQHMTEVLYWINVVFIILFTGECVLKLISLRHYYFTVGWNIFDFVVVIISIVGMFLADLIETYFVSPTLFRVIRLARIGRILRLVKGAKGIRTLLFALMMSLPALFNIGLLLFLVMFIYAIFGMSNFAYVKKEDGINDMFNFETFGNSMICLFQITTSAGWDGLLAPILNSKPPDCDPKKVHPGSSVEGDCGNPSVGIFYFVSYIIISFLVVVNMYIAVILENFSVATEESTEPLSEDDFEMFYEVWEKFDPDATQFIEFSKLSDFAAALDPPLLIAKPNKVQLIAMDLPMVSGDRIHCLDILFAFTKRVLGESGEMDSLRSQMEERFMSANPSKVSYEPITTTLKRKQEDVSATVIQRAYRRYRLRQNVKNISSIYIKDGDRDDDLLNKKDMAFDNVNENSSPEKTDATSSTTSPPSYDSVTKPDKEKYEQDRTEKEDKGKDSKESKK
For assay [2], the target named is Sodium channel protein type 5 subunit alpha (Homo sapiens, UniProt Q14524). The assay can be described thus: Inhibition of human NaV1.5 at -140 mV holding potential by whole-cell patch clamp assay.
Chain of Sodium channel protein type 5 subunit alpha (Q14524 whole entry): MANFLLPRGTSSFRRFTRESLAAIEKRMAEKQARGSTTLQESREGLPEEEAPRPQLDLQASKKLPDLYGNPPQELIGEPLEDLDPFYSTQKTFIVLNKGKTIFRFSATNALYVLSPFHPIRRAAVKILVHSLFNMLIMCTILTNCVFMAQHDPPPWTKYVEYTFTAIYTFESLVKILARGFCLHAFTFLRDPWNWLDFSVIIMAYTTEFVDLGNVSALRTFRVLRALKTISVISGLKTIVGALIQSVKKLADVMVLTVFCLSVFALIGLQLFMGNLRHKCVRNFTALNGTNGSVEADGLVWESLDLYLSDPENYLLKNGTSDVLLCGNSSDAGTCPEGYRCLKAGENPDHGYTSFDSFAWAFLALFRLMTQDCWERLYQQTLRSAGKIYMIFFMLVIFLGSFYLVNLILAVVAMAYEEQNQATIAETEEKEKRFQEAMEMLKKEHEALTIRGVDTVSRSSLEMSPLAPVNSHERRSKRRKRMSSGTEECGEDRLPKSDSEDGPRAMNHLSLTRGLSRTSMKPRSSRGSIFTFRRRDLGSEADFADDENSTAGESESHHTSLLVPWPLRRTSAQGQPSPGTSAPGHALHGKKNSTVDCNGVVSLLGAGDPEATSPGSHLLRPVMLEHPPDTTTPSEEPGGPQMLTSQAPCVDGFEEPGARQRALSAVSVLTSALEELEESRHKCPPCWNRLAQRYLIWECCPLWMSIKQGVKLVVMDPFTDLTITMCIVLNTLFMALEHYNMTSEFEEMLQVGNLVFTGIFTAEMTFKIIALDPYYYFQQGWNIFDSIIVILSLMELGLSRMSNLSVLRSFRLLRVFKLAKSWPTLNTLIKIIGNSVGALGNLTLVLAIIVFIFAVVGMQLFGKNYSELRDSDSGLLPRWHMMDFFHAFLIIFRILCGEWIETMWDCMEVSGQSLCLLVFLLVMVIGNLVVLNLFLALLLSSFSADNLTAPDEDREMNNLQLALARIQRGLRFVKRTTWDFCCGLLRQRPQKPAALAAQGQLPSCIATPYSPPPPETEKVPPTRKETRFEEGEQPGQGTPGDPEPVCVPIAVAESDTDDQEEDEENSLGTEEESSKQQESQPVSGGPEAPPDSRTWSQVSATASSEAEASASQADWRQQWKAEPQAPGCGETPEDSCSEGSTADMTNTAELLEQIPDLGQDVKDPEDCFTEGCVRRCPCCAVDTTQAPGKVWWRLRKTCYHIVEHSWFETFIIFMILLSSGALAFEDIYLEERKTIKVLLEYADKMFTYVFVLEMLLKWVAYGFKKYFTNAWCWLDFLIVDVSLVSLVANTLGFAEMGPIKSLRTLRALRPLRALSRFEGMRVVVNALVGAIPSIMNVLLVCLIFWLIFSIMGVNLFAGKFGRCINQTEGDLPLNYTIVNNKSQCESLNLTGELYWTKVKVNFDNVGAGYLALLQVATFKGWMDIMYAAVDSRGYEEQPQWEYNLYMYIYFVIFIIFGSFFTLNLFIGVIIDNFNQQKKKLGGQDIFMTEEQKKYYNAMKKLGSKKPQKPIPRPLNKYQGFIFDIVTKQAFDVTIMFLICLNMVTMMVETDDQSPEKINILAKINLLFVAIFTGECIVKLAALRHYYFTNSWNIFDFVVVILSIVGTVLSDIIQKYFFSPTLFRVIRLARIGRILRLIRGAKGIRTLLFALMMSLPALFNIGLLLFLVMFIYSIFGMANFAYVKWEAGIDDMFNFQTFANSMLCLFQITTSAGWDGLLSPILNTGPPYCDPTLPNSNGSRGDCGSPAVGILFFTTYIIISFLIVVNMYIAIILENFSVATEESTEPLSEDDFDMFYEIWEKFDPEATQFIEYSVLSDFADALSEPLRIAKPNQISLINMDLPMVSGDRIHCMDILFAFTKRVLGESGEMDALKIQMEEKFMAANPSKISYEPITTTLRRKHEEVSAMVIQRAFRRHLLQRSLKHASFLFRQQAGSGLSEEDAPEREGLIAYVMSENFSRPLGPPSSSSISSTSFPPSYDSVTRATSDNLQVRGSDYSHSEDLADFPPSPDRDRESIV

Turning to `CC[C@H](C)[C@@H]1NC(=O)[C@@H]2CSSC[C@@H]3NC(=O)[C@H](C(C)C)NC(=O)[C@H](CC(C)C)NC(=O)[C@H](CC(N)=O)NC(=O)[C@@H]4CCCN4C(=O)[C@H](CCCNC(=N)N)NC(=O)[C@H](CSSC[C@H](NC(=O)[C@@H](N)CC(=O)O)C(=O)N[C@@H](CC(C)C)C(=O)NCC(=O)N[C@@H](C)C(=O)N[C@@H](Cc4c[nH]c5ccccc45)C(=O)N[C@@H](CCCNC(=N)N)C(=O)N[C@@H](CCCCN)C(=O)N2)NC(=O)[C@H](CSSC[C@@H](C(=O)N[C@@H](CCCCN)C(=O)N[C@@H](Cc2ccc(O)cc2)C(=O)N[C@H](C(=O)N[C@@H](Cc2ccccc2)C(N)=O)C(C)C)NC(=O)[C@H](Cc2c[nH]c4ccccc24)NC(=O)[C@H](CCCCN)NC(=O)[C@H](Cc2cnc[nH]2)NC(=O)[C@H]([C@@H](C)O)NC(=O)[C@H](CCCNC(=N)N)NC(=O)[C@H](CO)NC3=O)NC(=O)[C@H](CCCCN)NC(=O)[C@H](CC(=O)O)NC(=O)[C@H](CC(N)=O)NC(=O)[C@H](CC(=O)O)NC(=O)[C@@H]2CCCN2C1=O` (H-DCLGAWRKCIPDNDKCCRPNLVCSRTHKWCKYVF-NH2; disulfide 2-17, 9-23, 16-30), the IC50 was 59 nM in assay [1] and more than 10000 nM in assay [2].

Consider `CC[C@H](C)[C@@H]1NC(=O)[C@@H]2CSSC[C@@H]3NC(=O)[C@H](C(C)C)NC(=O)[C@H](CC(C)C)NC(=O)[C@H](CC(N)=O)NC(=O)[C@@H]4CCCN4C(=O)[C@H](CCCNC(=N)N)NC(=O)[C@H](CSSC[C@H](NC(=O)[C@@H](N)CC(=O)O)C(=O)N[C@@H](CC(C)C)C(=O)NCC(=O)N[C@@H](Cc4ccccc4)C(=O)N[C@@H](C)C(=O)N[C@@H](CCCNC(=N)N)C(=O)N[C@@H](CCCCN)C(=O)N2)NC(=O)[C@H](CSSC[C@@H](C(=O)N[C@@H](CCCCN)C(=O)N[C@@H](Cc2ccc(O)cc2)C(=O)N[C@H](C(=O)N[C@@H](Cc2ccccc2)C(N)=O)C(C)C)NC(=O)[C@H](Cc2c[nH]c4ccccc24)NC(=O)[C@H](CCCCN)NC(=O)[C@H](Cc2cnc[nH]2)NC(=O)[C@H]([C@@H](C)O)NC(=O)[C@H](CCCNC(=N)N)NC(=O)[C@H](CO)NC3=O)NC(=O)[C@H](CCCCN)NC(=O)[C@H](CC(=O)O)NC(=O)[C@H](CC(N)=O)NC(=O)[C@H](CC(=O)O)NC(=O)[C@@H]2CCCN2C1=O` (H-DCLGFARKCIPDNDKCCRPNLVCSRTHKWCKYVF-NH2; disulfide 2-17, 9-23, 16-30), for which the values for the concentration for half-maximal inhibition (IC50) in assay [1] and in assay [2] were 430 nM and more than 5000 nM, respectively.

In the case of `CC[C@H](C)[C@@H]1NC(=O)[C@@H]2CSSC[C@@H]3NC(=O)[C@H](C(C)C)NC(=O)[C@H](CC(C)C)NC(=O)[C@H](CC(N)=O)NC(=O)[C@@H]4CCCN4C(=O)[C@H](CCCNC(=N)N)NC(=O)[C@H](CSSC[C@H](NC(=O)[C@@H](N)CC(=O)O)C(=O)N[C@@H](CC(C)C)C(=O)NCC(=O)N[C@@H](Cc4ccccc4)C(=O)N[C@@H](Cc4ccccc4)C(=O)N[C@@H](CCCNC(=N)N)C(=O)N[C@@H](CCCCN)C(=O)N2)NC(=O)[C@H](CSSC[C@@H](C(=O)N[C@@H](CCCCN)C(=O)N[C@@H](Cc2ccc(O)cc2)C(=O)N[C@H](C(=O)N[C@@H](Cc2ccccc2)C(N)=O)C(C)C)NC(=O)[C@H](Cc2c[nH]c4ccccc24)NC(=O)[C@H](CCCCN)NC(=O)[C@H](Cc2cnc[nH]2)NC(=O)[C@H]([C@@H](C)O)NC(=O)[C@H](CCCNC(=N)N)NC(=O)[C@H](CO)NC3=O)NC(=O)[C@H](CCCCN)NC(=O)[C@H](CC(=O)O)NC(=O)[C@H](CC(N)=O)NC(=O)[C@H](CC(=O)O)NC(=O)[C@@H]2CCCN2C1=O` (H-DCLGFFRKCIPDNDKCCRPNLVCSRTHKWCKYVF-NH2; disulfide 2-17, 9-23, 16-30), the concentration for half-maximal inhibition (IC50) in assay [1] came to 19 nM; in assay [2], 3000 nM.

For `CC[C@H](C)[C@@H]1NC(=O)[C@@H]2CSSC[C@@H]3NC(=O)[C@H](C(C)C)NC(=O)[C@H](CC(C)C)NC(=O)[C@H](CC(N)=O)NC(=O)[C@@H]4CCCN4C(=O)[C@H](CCCNC(=N)N)NC(=O)[C@H](CSSC[C@H](NC(=O)[C@@H](N)CC(=O)O)C(=O)N[C@@H](CC(C)C)C(=O)NCC(=O)N[C@@H](Cc4ccccc4)C(=O)N[C@@H](CC(C)C)C(=O)N[C@@H](CCCNC(=N)N)C(=O)N[C@@H](CCCCN)C(=O)N2)NC(=O)[C@H](CSSC[C@@H](C(=O)N[C@@H](CCCCN)C(=O)N[C@@H](Cc2ccc(O)cc2)C(=O)N[C@H](C(=O)N[C@@H](Cc2ccccc2)C(N)=O)C(C)C)NC(=O)[C@H](Cc2c[nH]c4ccccc24)NC(=O)[C@H](CCCCN)NC(=O)[C@H](Cc2cnc[nH]2)NC(=O)[C@H]([C@@H](C)O)NC(=O)[C@H](CCCNC(=N)N)NC(=O)[C@H](CO)NC3=O)NC(=O)[C@H](CCCCN)NC(=O)[C@H](CC(=O)O)NC(=O)[C@H](CC(N)=O)NC(=O)[C@H](CC(=O)O)NC(=O)[C@@H]2CCCN2C1=O` (H-DCLGFLRKCIPDNDKCCRPNLVCSRTHKWCKYVF-NH2; disulfide 2-17, 9-23, 16-30), the results for the IC50 in assay [1] and in assay [2] were 24 nM and more than 10000 nM, respectively.

Turning to `CC[C@H](C)[C@@H]1NC(=O)[C@@H]2CSSC[C@@H]3NC(=O)[C@H](C(C)C)NC(=O)[C@H](CC(C)C)NC(=O)[C@H](CC(N)=O)NC(=O)[C@@H]4CCCN4C(=O)[C@H](CCCNC(=N)N)NC(=O)[C@H](CSSC[C@H](NC(=O)[C@@H](N)CC(=O)O)C(=O)N[C@@H](CC(C)C)C(=O)NCC(=O)N[C@@H](Cc4ccccc4)C(=O)N[C@@H](CCSC)C(=O)N[C@@H](CCCNC(=N)N)C(=O)N[C@@H](C)C(=O)N2)NC(=O)[C@H](CSSC[C@@H](C(=O)N[C@@H](CCCCN)C(=O)N[C@@H](Cc2ccc(O)cc2)C(=O)N[C@H](C(=O)N[C@@H](Cc2ccccc2)C(N)=O)C(C)C)NC(=O)[C@H](Cc2c[nH]c4ccccc24)NC(=O)[C@H](CCCCN)NC(=O)[C@H](Cc2cnc[nH]2)NC(=O)[C@H]([C@@H](C)O)NC(=O)[C@H](CCCNC(=N)N)NC(=O)[C@H](CO)NC3=O)NC(=O)[C@H](CCCCN)NC(=O)[C@H](CC(=O)O)NC(=O)[C@H](CC(N)=O)NC(=O)[C@H](CC(=O)O)NC(=O)[C@@H]2CCCN2C1=O` (H-DCLGFMRACIPDNDKCCRPNLVCSRTHKWCKYVF-NH2; disulfide 2-17, 9-23, 16-30), the IC50 in assay [1] is 500 nM; in assay [2], more than 5000 nM.

In the case of `CC[C@H](C)[C@@H]1NC(=O)[C@@H]2CSSC[C@@H]3NC(=O)[C@H](C(C)C)NC(=O)[C@H](CC(C)C)NC(=O)[C@H](CC(N)=O)NC(=O)[C@@H]4CCCN4C(=O)[C@H](CCCNC(=N)N)NC(=O)[C@H](CSSC[C@H](NC(=O)[C@@H](N)CC(=O)O)C(=O)N[C@@H](CC(C)C)C(=O)NCC(=O)N[C@@H](Cc4ccccc4)C(=O)N[C@@H](CCSC)C(=O)N[C@@H](CCCNC(=N)N)C(=O)N[C@@H](CCCCN)C(=O)N2)NC(=O)[C@H](CSSC[C@@H](C(=O)N[C@@H](CCCCN)C(=O)N[C@@H](Cc2ccc(O)cc2)C(=O)N[C@H](C(=O)N[C@@H](Cc2ccccc2)C(N)=O)C(C)C)NC(=O)[C@H](Cc2c[nH]c4ccccc24)NC(=O)[C@H](CCCCN)NC(=O)[C@H](Cc2cnc[nH]2)NC(=O)[C@H]([C@@H](C)O)NC(=O)[C@H](CCCNC(=N)N)NC(=O)[C@H](CO)NC3=O)NC(=O)[C@H](CCCCN)NC(=O)[C@H](CC(=O)O)NC(=O)[C@H](CC(N)=O)NC(=O)[C@H](CC(=O)O)NC(=O)[C@H](C)NC1=O` (H-DCLGFMRKCIADNDKCCRPNLVCSRTHKWCKYVF-NH2; disulfide 2-17, 9-23, 16-30), the half-maximal inhibitory concentration (IC50) was 170 nM in assay [1] and more than 5000 nM in assay [2].

Regarding `CC[C@H](C)[C@@H]1NC(=O)[C@@H]2CSSC[C@@H]3NC(=O)[C@H](C(C)C)NC(=O)[C@H](CC(C)C)NC(=O)[C@H](CC(N)=O)NC(=O)[C@@H]4CCCN4C(=O)[C@H](CCCNC(=N)N)NC(=O)[C@H](CSSC[C@H](NC(=O)[C@@H](N)CC(=O)O)C(=O)N[C@@H](CC(C)C)C(=O)NCC(=O)N[C@@H](Cc4ccccc4)C(=O)N[C@@H](CCSC)C(=O)N[C@@H](CCCNC(=N)N)C(=O)N[C@@H](CCCCN)C(=O)N2)NC(=O)[C@H](CSSC[C@@H](C(=O)N[C@@H](CCCCN)C(=O)N[C@@H](Cc2ccc(O)cc2)C(=O)N[C@H](C(=O)N[C@@H](Cc2ccccc2)C(N)=O)C(C)C)NC(=O)[C@H](Cc2c[nH]c4ccccc24)NC(=O)[C@H](CCCCN)NC(=O)[C@H](Cc2cnc[nH]2)NC(=O)[C@H]([C@@H](C)O)NC(=O)[C@H](CCCNC(=N)N)NC(=O)[C@H](CO)NC3=O)NC(=O)[C@H](CCCCN)NC(=O)[C@H](CC(=O)O)NC(=O)[C@H](C)NC(=O)[C@H](CC(=O)O)NC(=O)[C@@H]2CCCN2C1=O` (H-DCLGFMRKCIPDADKCCRPNLVCSRTHKWCKYVF-NH2; disulfide 2-17, 9-23, 16-30), the IC50 in assay [1] was 190 nM; in assay [2], more than 5000 nM.

Turning to `CC[C@H](C)[C@@H]1NC(=O)[C@@H]2CSSC[C@@H]3NC(=O)[C@H](C(C)C)NC(=O)[C@H](CC(C)C)NC(=O)[C@H](CC(N)=O)NC(=O)[C@@H]4CCCN4C(=O)[C@H](CCCNC(=N)N)NC(=O)[C@H](CSSC[C@H](NC(=O)[C@@H](N)CC(=O)O)C(=O)N[C@@H](CC(C)C)C(=O)NCC(=O)N[C@@H](Cc4ccccc4)C(=O)N[C@@H](CCSC)C(=O)N[C@@H](CCCNC(=N)N)C(=O)N[C@@H](CCCCN)C(=O)N2)NC(=O)[C@H](CSSC[C@@H](C(=O)N[C@@H](CCCCN)C(=O)N[C@@H](Cc2ccc(O)cc2)C(=O)N[C@H](C(=O)N[C@@H](Cc2ccccc2)C(N)=O)C(C)C)NC(=O)[C@H](Cc2c[nH]c4ccccc24)NC(=O)[C@H](CCCCN)NC(=O)[C@H](Cc2cnc[nH]2)NC(=O)[C@H]([C@@H](C)O)NC(=O)[C@H](CCCNC(=N)N)NC(=O)[C@H](CO)NC3=O)NC(=O)[C@H](C)NC(=O)[C@H](CC(=O)O)NC(=O)[C@H](CC(N)=O)NC(=O)[C@H](CC(=O)O)NC(=O)[C@@H]2CCCN2C1=O` (H-DCLGFMRKCIPDNDACCRPNLVCSRTHKWCKYVF-NH2; disulfide 2-17, 9-23, 16-30), the IC50 is 230 nM in assay [1] and more than 5000 nM in assay [2].

Usually IC50 stands for the point on the concentration scale where inhibition reaches its midpoint. Higher therefore signals lower potency.
